Calls of active or inactive are those of the source. The calls are words filed in the database; no cut-off is given here.
What was measured:
[1] = Cytotoxicity against human HepG2 cells assessed as reduction in cell viability incubated for 72 hrs by MTT assay; type: toxicity, cell-based
PANC-1 = assay: Cytotoxicity against human PANC-1 cells assessed as reduction in cell viability incubated for 72 hrs by MTT assay; type: functional, cell-based; details: PANC-1, 72 h
[2] = Half life in Sprague-Dawley rat at 20 mg/kg, ip measured for 0.03 to 24 hrs by UPLC-MS analysis; type: ADME, organism-based; details: in vivo, time 0.03-24 hrs
[3] = AUC (0 to t) in Sprague-Dawley rat at 20 mg/kg, ip measured for 0.03 to 24 hrs by UPLC-MS analysis; type: ADME, organism-based; set-up: time lower 0.03 hrs, dose 20 mg/kg, time upper 24 hrs, route ip; details: in vivo
[4] = Cmax in Sprague-Dawley rat at 20 mg/kg, ip measured for 0.03 to 24 hrs by UPLC-MS analysis; type: ADME, organism-based; set-up: time lower 0.03 hrs, dose 20 mg/kg, time upper 24 hrs, route ip; details: in vivo
[5] = Toxicity in ICR mouse assessed as change in monocyte count at 100 mg/kg, ip qd (reference value: 0.1 10^9/L); type: organism-based; details: in vivo
[6] = Toxicity in ICR mouse assessed as change in monocyte level at 100 mg/kg, ip qd (reference value: 3.2 %); type: organism-based; details: in vivo
[7] = Toxicity in ICR mouse assessed as change in mean corpuscular volume at 100 mg/kg, ip qd (reference value: 51.3 fL); type: organism-based; details: in vivo
[8] = Toxicity in ICR mouse assessed as change in mean corpuscular hemoglobin concentration at 100 mg/kg, ip qd (reference value: 343 g/L); type: organism-based; details: in vivo
[9] = Toxicity in ICR mouse assessed as change in mean platelet volume at 100 mg/kg, ip qd (reference value: 5.6 fL); type: organism-based; details: in vivo
[10] = Toxicity in ICR mouse assessed as change in platelet distribution width at 100 mg/kg, ip qd (reference value: 16.7); type: organism-based; details: in vivo
Bel-7402 [11] = assay: Cytotoxicity against human Bel-7402 cells assessed as inhibition rate at 5 uM incubated for 72 hrs by MTT assay relative to control; type: functional; set-up: scale not given: the % may be the effect or the level left
Bel-7402 [12] = assay: Cytotoxicity against human Bel-7402 cells assessed as increase LDH release at 2.5 to 5 uM by LDH assay; type: functional, cell-based; details: dose 2.5-5 µM, time 24-48 hrs, TDE = time-dependent effect
Bel-7402 [13] = assay: Induction of apoptosis in human Bel-7402 cells assessed as dead cells at 0.313 uM incubated for 24 hrs by Annexin V and dead cell assay kit (reference value: 0.80 %); type: functional
Bel-7402 [14] = assay: Induction of apoptosis in human Bel-7402 cells assessed as viable cells at 0.625 uM incubated for 24 hrs by Annexin V and dead cell assay kit (reference value: 91.00%); type: functional; details: read-out: Activity
Bel-7402 [15] = assay: Induction of apoptosis in human Bel-7402 cells assessed as early apoptotic cells at 1.25 uM incubated for 24 hrs by Annexin V and dead cell assay kit (reference value: 3.75 %); type: functional
Bel-7402 [16] = assay: Induction of apoptosis in human Bel-7402 cells assessed as late apoptotic cells at 1.25 uM incubated for 24 hrs by Annexin V and dead cell assay kit (reference value: 4.45 %); type: functional
Bel-7402 [17] = assay: Induction of apoptosis in human Bel-7402 cells assessed as viable cells at 2.5 uM incubated for 24 hrs by Annexin V and dead cell assay kit (reference value: 91.00%); type: functional; details: read-out: Activity
Bel-7402 [18] = assay: Induction of apoptosis in human Bel-7402 cells assessed as viable cells at 5 uM incubated for 24 hrs by Annexin V and dead cell assay kit (reference value: 91.00%); type: functional; details: read-out: Activity
Bel-7402 [19] = assay: Disruption of mitochondrial membrane potential in human Bel-7402 cells incubated for 24 hrs by Rho-123 staining based flow cytometry analysis; type: functional, cell-based; details: dose <= 5.0 µM, DDE = dose-dependent effect
Bel-7402 [20] = assay: Antitumor activity against human Bel-7402 cells xenografted in BALB/c nude mouse assessed as tumor growth inhibition at 20 mg/kg, ip bid for 14 days measured every 2 days relative to control; type: functional; details: Bel-7402, 336 h, time 14 day, read-out: TGI
Bel-7402 [21] = assay: Antitumor activity against human Bel-7402 cells xenografted in BALB/c nude mouse assessed as tumor growth inhibition at 10 mg/kg, ip bid measured every 2 days for 14 days relative to control; type: functional; details: Bel-7402, 336 h, time 14 day, read-out: TGI
[22] = Toxicity in BALB/c nude mouse xenografted with human Bel-7402 cells assessed as change in body weight at 10 to 20 mg/kg, ip bid measured every 2 days for 14 days; type: organism-based; details: in vivo, 336 h, dose 10-20 mg/kg, time 14 day
Bel-7402 [23] = assay: Induction of ERK degradation in human Bel-7402 cells at 2.5 uM incubated for 24 hrs in presence of Z-vad-fmk by Western blot analysis; type: cell-based
[24] = Chronic toxicity in ICR mouse assessed as effect on kidney morphology at 100 mg/kg, ip qd measured after 26 days by H and E staining method; type: organism-based; details: in vivo, 624 h, time 26 day
Bel-7402 [25] = assay: Induction of AKT degradation in human Bel-7402 cells at 2.5 uM incubated for 24 hrs in presence of Z-vad-fmk by Western blot analysis; type: cell-based
Bel-7402 [26] = assay: Induction of AKT degradation in human Bel-7402 cells at 2.5 uM incubated for 24 hrs in presence of chloroquine by Western blot analysis; type: cell-based
Bel-7402 [27] = assay: Upregulation of total protein ubiquitination level in human Bel-7402 cells by Western blot analysis; type: functional, cell-based; details: dose <= 10.0 µM, DDE = dose-dependent effect
[28] = Drug elimination in mouse bearing tumor measured after 24 hr by ICG dye based fluorescence imaging; type: ADME; details: in vivo
[29] = Biodistribution in liver of mouse bearing tumor measured after 24 hr by ICG dye based fluorescence imaging; type: ADME, organism-based; details: in vivo
[30] = Biodistribution in lung of mouse bearing tumor measured after 24 hr by ICG dye based fluorescence imaging; type: ADME, organism-based; details: in vivo
[31] = Acute toxicity in ICR mouse assessed as body weight change at 100 to 500 mg/kg, ip; type: organism-based; details: in vivo, dose 100-500 mg/kg
[32] = Acute toxicity in ICR mouse assessed as change in amount of food intake at 100 to 500 mg/kg, ip; type: organism-based; details: in vivo, dose 100-500 mg/kg
[33] = Sub-chronic toxicity in ICR mouse assessed as behavioural change at 100 mg/kg/day, ip for 26 days; type: organism-based; details: in vivo, 624 h, time 26 day
[34] = Sub-chronic toxicity in ICR mouse assessed as change in amount of food intake at 100 mg/kg/day, ip for 26 days; type: organism-based; details: in vivo, 624 h, time 26 day
HeLa = assay: Cytotoxicity against human HeLa cells assessed as reduction in cell viability incubated for 72 hrs by MTT assay; type: functional, cell-based
Bel-7402 [35] = assay: Induction of apoptosis in human Bel-7402 cells assessed as late apoptotic cells at 2.5 uM incubated for 24 hrs by Annexin V and Dead cell kit assay (reference value: 3.85 %); type: functional
Bel-7402 [36] = assay: Induction of apoptosis in human Bel-7402 cells assessed as necrotic cells at 2.5 uM incubated for 24 hrs by Annexin V and Dead cell kit assay (reference value: 1.6 %); type: functional
Bel-7402 [37] = assay: Induction of apoptosis in human Bel-7402 cells assessed as early apoptotic cells at 2.5 uM incubated for 24 hrs in presence of U0126 by Annexin V and Dead cell kit assay (reference value: 3.7 %); type: functional

CC[C@H](C)/C=C(C)/C=C/C1=CC2=C(Cl)C(=O)[C@](C)(O)C(=O)C2=CN1Cc1ccc(OC(F)(F)F)cc1
IC50 at 72 h [1]: 2820 nM
IC50 (PANC-1): 2290 nM
half-life [2]: 2.5 h
AUC(0-t) [3]: 29700 ng·h/mL
Cmax [4]: 5590 ng/mL
Activity [5]: 0.3 10^9/L
Activity [6]: 8.1%
Activity [7]: 55 fL
Activity [8]: 306 g/L
Activity [9]: 6.7 fL
Activity [10]: 18.3
Activity (Bel-7402 [11]): 90.13%
Activity (Bel-7402 [12]): Tde
Activity (Bel-7402 [13]): 0.35%
viability at 0.625 µM (Bel-7402 [14]): 91.6%
Activity (Bel-7402 [15]): 5.1%
Activity (Bel-7402 [16]): 5.75%
viability at 2.5 µM (Bel-7402 [17]): 44.9%
viability at 5 µM (Bel-7402 [18]): 8.2%
Activity (Bel-7402 [19]): Dde
inhibition in vivo at 20 mg/kg (Bel-7402 [20]): 52.5%
inhibition in vivo at 10 mg/kg (Bel-7402 [21]): 34.6%
Activity [22]: Non-Toxic
Activity (Bel-7402 [23]): Active
Activity [24]: Non-Toxic
Activity (Bel-7402 [25]): Active
Activity (Bel-7402 [26]): Active
Activity (Bel-7402 [27]): Dde
Drug excretion [28]: Metabolite_Detected
Activity [29]: Active
Activity [30]: Active
Activity [31]: Non-Toxic
Activity [32]: Non-Toxic
Activity [33]: Non-Toxic
Activity [34]: Non-Toxic
IC50 (HeLa): 2780 nM
Activity (Bel-7402 [35]): 37.9%
Activity (Bel-7402 [36]): 11.15%
Activity (Bel-7402 [37]): 26.1%
